Marks after values point to notes of the source that are not given here.
What was measured:
[1] = tested on: carrageenan-induced edema; assay: Anti-inflammatory effect (carrageenan edema method); format: in vivo, rats of the Wistar strain; details: Rattus norvegicus; percent inhibition of carrageenan-induced edema; dose 25 mg/kg (*), oral
Method: The percent inhibition against carrageenan-induced edema in rats of the Wistar strain, using the conventional method of C.A. Winter, E.A. Risley, G.W. Nuss [J. Pharmacol., Exp. Therap., 141, 369 (1963)]. Except where otherwise noted, the dose of test compound was 50 mg/kg.

[2] = tested on: inflammation induced by anti-rat IgG rabbit serum; assay: Anti-inflammatory effect (reversed passive alusas reaction, Evans blue extraction); format: in vivo, rats of the Sprague-Dawley strain; details: 2.5 h, percent inhibition of inflammation relative to control group, dose 25 mg/kg (*), oral
Method: The test animals were rats of the Sprague-Dawley strain, which had first been fasted for 17 hours. The hair was trimmed from their dorsal portions by means of a hair clipper, and 0.1 ml/site of anti-rat IgG rabbit serum was injected intracutaneously at the trimmed part to induce inflammation. Except in the case of the control animals, to which no anti-inflammatory drug was administered, the test drug was administered orally immediately before inflammation was induced. Except where otherwise noted, the dose of test compound was 50 mg/kg. Two hours after induction of inflammation, a 1% by volume solution of Evans blue in physiological saline was injected intravenously into the tail of each rat in an amount of 1 ml per each animal. 30 minutes after this injection, the rats were sacrificed with carbon dioxide and their skins were peeled off to extract the chromogen of the blue spots. In more detail, the skins were cut into small pieces and extracted with 5 ml of an extraction solvent at room temperature for 2 days. The supernatant obtained by centrifugation was then measured spectrophotometrically at an absorption wavelength of 605 nm. The percent inhibition of inflammation of the group of rats to which the test drug was administered was determined relative to the control group.

[3] = tested on: rats of the Wistar strain; assay: Analgesic effect (Randall-Selitto method); format: in vivo; details: fraction of animals; dose 25 mg/kg (*), oral
Method: These tests were conducted according to the Randall-Selitto method using rats of the Wistar strain [L.O. Randall, J.J. Selitto: Arch. int. Pharmacodyn. 111, 409 (1957)]. Except where otherwise noted, the dose of test compound was 50 mg/kg.

Acute toxicity = format: in vivo; details: mouse, in vivo; fraction of animals; dose 300 mg/kg oral in 0.5% carboxymethyl cellulose, observed for 7 days
Method: The test animals employed were male mice of the ddy strain (age: 5 weeks). […] The dose of test compound was 300 mg/kg.

For `Cc1ccc(-c2cnn3cc[nH]c23)cc1` [Example 35, 7-(p-methylphenyl)-1H-imidazo[1,2-b]pyrazole], the inhibition in vivo at 25 mg/kg [1] was 56.4%, the inhibition in vivo at 25 mg/kg [2] was 69.9% and the “Analgesic effect (Randall-Selitto)” value [3] was 5/5*. The mortality at 168 h (Acute toxicity) was 30%.

Reference: EP0353047B1, “Use of imidazopyrazole derivatives as analgesics and anti-inflammatory agents” (Sankyo Company Limited, priority 1988, dated 1990)
